{"source": "patent EP4667463A1", "about": "“DOMIDE MOLECULAR GLUE DERIVATIVE AND USE THEREOF” (CSPC Megalith Biopharmaceutical Co., Ltd., priority 2023, dated 2024)", "key": {"HCT-15": {"tested_on": "HCT-15", "assay": "Activity in cell strains with high expression of efflux pump proteins, cell viability assay", "assay_type": "cell-based", "settings": "Homo sapiens, HCT-15 cells, 96 h", "procedure": "(§1) Three types of cells used for evaluating the activity of the compounds of the present disclosure against a cell strain with high expression of efflux pump proteins were all purchased from Nanjing Cobioer Biosciences Co., Ltd., and all the cells were derived from ATCC (American Type Culture Collection). Various tumor cells were cultured until the cell confluency reached 80%-90%, with cell viability above 90% as determined by trypan blue exclusion. Then, the cells were plated. Specifically, after cell density optimization, 75 µL of each of three cell suspensions of SNU-5, HCT-15, and AsPc-1 cells (3000 cells/well) was inoculated into a BeyoGold™ ultra-low attachment black clear-bottom 96-well plate (Cat. No.: FULA965-24pcs), and the plate was incubated overnight in a cell incubator at 37 °C with carbon dioxide. The next day, after the cells adhered to the wall, 75 µL of the compounds diluted with the corresponding culture media were added. Specifically, the compounds were serially diluted at a 5-fold gradient starting from the highest concentration of 1 µM, with a final DMSO concentration of 1‰, and the test compounds were then added to the cell culture plate. The plate was incubated in an incubator at 37 °C with 5% carbon dioxide for 96 h. Before measurement, the CellTiter-Lumi™ luminescent cell viability assay reagent was equilibrated to room temperature in the dark. Then, 50 µL of the CellTiter-Lumi™ (Cat. No.: C0065XL) cell viability assay reagent was added to each well of the 96-well plate. The plate was shaken in the dark on a shaker at 300 rpm for 10 min to ensure complete cell lysis. After the reaction was completed, the chemiluminescence intensity was measured on a multi-mode microplate reader. The cell viability inhibition rate was determined according to the chemiluminescence intensity. Then, a cell viability curve was generated by Graphpad Prism 8.0, and the IC50 values were calculated. Table 3. Activity of the compounds of the present disclosure in cell strains with high expression of efflux pump proteins (IC50 value)"}, "AsPc-1": {"tested_on": "AsPc-1", "assay": "Activity in cell strains with high expression of efflux pump proteins, cell viability assay", "assay_type": "cell-based", "settings": "Homo sapiens, ASPC1, AsPc-1 cells, 96 h", "procedure": "as §1"}, "SNU-5": {"tested_on": "SNU-5", "assay": "Activity in cell strains with high expression of efflux pump proteins, cell viability assay", "assay_type": "cell-based", "settings": "Homo sapiens, SNU-5 cells, 96 h", "procedure": "as §1"}, "[1]": {"assay": "Metabolic stability in liver microsomes", "settings": "Dog liver microsomes, after 60 min of incubation", "method": "The final concentration of the substrate in the incubation system was 1 µM, and the incubation time was 60 min. Sampling was performed at 0 min, 5 min, 15 min, 30 min, and 60 min. The reaction was stopped with glacial acetonitrile containing an internal standard (testosterone-d3 at a concentration of 10 ng/mL). Verapamil was used as a positive control. […] The natural logarithm of the remaining percentage was subjected to linear fitting with time to determine the elimination rate constant (k)."}}}
{"smiles": "O=C1CCC(N2Cc3cc(CNC(=O)Nc4ccc(CCCOC5CCCNC5)c(Cl)c4)ccc3C2=O)C(=O)N1", "note": "(stereo not shown) [Compound B19]", "values": [{"measurement": "IC50", "setting": "HCT-15", "result": "200 to 1000", "unit": "nM"}, {"measurement": "IC50", "setting": "AsPc-1", "result": "50 to 200", "unit": "nM"}, {"measurement": "IC50", "setting": "SNU-5", "result": "< 50", "unit": "nM"}, {"measurement": "Parent drug remaining %", "setting": "[1]", "result": 118, "unit": "%"}]}
